Results: PMC4266358 (Journal of Medicinal Chemistry, 2014)
Entries after “also recorded” stand apart in the source; their conditions may differ.

Assays:
[1] = test system: CNS receptors and ion channels (44 off-target sites); test: PDSP broad screen of binding at off-target sites; settings: binding screen at 10 μM / Ki follow-up
[2] = target: T1, mA3AR (Mus musculus, UniProt Q61618); type: cell-based
T1 sequence (Q61618 1-319): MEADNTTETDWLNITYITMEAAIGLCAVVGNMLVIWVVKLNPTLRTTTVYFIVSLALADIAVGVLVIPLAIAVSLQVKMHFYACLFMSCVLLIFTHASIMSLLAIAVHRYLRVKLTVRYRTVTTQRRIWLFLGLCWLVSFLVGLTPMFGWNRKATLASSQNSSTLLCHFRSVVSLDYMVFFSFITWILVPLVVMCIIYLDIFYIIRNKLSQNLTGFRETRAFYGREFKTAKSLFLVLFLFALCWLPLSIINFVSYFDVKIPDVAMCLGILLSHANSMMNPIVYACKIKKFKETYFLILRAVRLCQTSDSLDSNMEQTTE

[3] = test system: CACO-2 cell monolayer / P-glycoprotein; test: Bidirectional permeability in CACO-2 cell monolayer; settings: CACO-2 monolayer; for P-glycoprotein substrate: bidirectional permeability
[4] = test system: chronic constriction injury (CCI) of the sciatic nerve, mechano-allodynia; test: CCI model of neuropathic pain in mice, oral dosing, paw withdrawal threshold; type: in vivo, mouse; settings: for in vivo duration of action: po, CCI model in mice
[5] = Chemical stability in simulated gastric fluid; settings: pH 1.6, 37 °C
[6] = Stability in human liver microsomes
[7] = Stability in rat liver microsomes
[8] = Plasma protein binding
[9] = Plasma protein binding; remark: listed apart in the source
[10] = Chemical stability in simulated intestinal fluid; settings: pH 6.5, 37 °C
[11] = Stability in mouse liver microsomes
[12] = target: T2, hA3AR (Homo sapiens, UniProt P0DMS8); test: Radioligand binding at hA3AR, CHO cell membranes, [125I]I-AB-MECA; settings: read-out: hA3AR Ki, n = 3–4
T2 sequence (P0DMS8 1-318): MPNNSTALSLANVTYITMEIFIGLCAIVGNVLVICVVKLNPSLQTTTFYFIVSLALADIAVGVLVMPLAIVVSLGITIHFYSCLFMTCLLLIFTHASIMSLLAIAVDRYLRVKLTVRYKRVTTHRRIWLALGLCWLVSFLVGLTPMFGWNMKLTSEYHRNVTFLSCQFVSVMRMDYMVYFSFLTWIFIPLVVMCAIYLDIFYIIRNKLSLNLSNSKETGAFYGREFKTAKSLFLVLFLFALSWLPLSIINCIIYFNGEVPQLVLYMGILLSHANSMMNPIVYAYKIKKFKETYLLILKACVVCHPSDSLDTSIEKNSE

[13] = Plasma protein binding; remark: listed apart in the source

With CNC(=O)[C@@]12C[C@@H]1[C@@H](n1cnc3c(NC)nc(C#Cc4ccc(F)c(F)c4)nc31)[C@H](O)[C@@H]2O [Compound 13, reference compound] the “off-target interactions in PDSP screen” value [1] was “inhibited binding by >30% at only a few sites”.

In the case of CNC(=O)[C@@]12C[C@@H]1[C@@H](n1cnc3c(NC)nc(C#Cc4cccs4)nc31)[C@H](O)[C@@H]2O [Compound 32, (1S,2R,3S,4R,5S)-2,3-Dihydroxy-N-methyl-4-(6-(methylamino)-2-(thiophen-2-ylethynyl)-9H-purin-9-yl)bicyclo[3.1.0]hexane-1-carboxamide], the “off-target interactions in PDSP screen” value [1] is reported as “inhibited binding by >30% at only a few sites” and the IC50 [2] is reported as 60.1 nM.

For CNC(=O)[C@@]12C[C@@H]1[C@@H](n1cnc3c(NC)nc(C#Cc4cnccn4)nc31)[C@H](O)[C@@H]2O [Compound 23, (1S,2R,3S,4R,5S)-2,3-Dihydroxy-N-methyl-4-(6-(methylamino)-2-(pyrazin-2-ylethynyl)-9H-purin-9-yl)bicyclo[3.1.0]hexane-1-carboxamide], the “off-target interactions in PDSP screen” value [1] was “inhibited binding by >30% at only a few sites” and the P-glycoprotein substrate [3] was “not to be substrates for P-glycoprotein”.

With CNC(=O)[C@@]12C[C@@H]1[C@@H](n1cnc3c(NC)nc(C#Cc4ccc(Cl)s4)nc31)[C@H](O)[C@@H]2O [Compound 33, (1S,2R,3S,4R,5S)-4-(2-((5-Chlorothiophen-2-yl)ethynyl)-6-(methylamino)-9H-purin-9-yl)-2,3-dihydroxy-N-methylbicyclo[3.1.0]hexane-1-carboxamide] the “off-target interactions in PDSP screen” value [1] was “largely free of off-target receptor effects, except at TSPO and σ1 and σ2 receptors”, the “reversal of neuropathic pain at intermediate dose” value ([4]; […] po, Figure 1 dose–response) was “approximately 80%” and the “in vivo duration of action” value [4] was > 3 h. The “apical to basal permeability” value [3] was “moderate” and the P-glycoprotein substrate [3] was “not to be substrates for P-glycoprotein”.

In the case of CNC(=O)[C@@]12C[C@@H]1[C@@H](n1cnc3c(NC)nc(C#C[c-]4cccc4)nc31)[C@H](O)[C@@H]2O.[Fe+2].c1cc[cH-]c1 [Compound 36, (1S,2R,3S,4R,5S)-4-(2-((Ferrocen-yl)ethynyl)-6-(methylamino)-9H-purin-9-yl)-2,3-dihydroxy-N-methylbicyclo[3.1.0]hexane-1-carboxamide], the “stability in simulated fluids, gastric, t1/2” value [5] is reported as 46.5 min, the “stability in liver microsomes t1/2, human” value [6] is reported as 3.66 min and the “stability in liver microsomes t1/2, rat” value [7] is reported as 6.64 min. The “% unbound in plasma, mouse” value [8] was 4.85%, the “% unbound in plasma, human” value [9] was 7.00% and the “agonist efficacy at the mA3AR” value ([2]; cyclic AMP assay, HEK293-mA3AR) was “full agonists”. For the same molecule, the “max effect Emax (% ± SEM), % of complete reversal at peak protection” value ([4]; 3 μmol/kg po on day 7 after CCI, mice, ipsilateral hind paw) was 94.3 ± 5.7%, the “in vivo duration of action” value [4] was > 3 h and the “stability in simulated fluids, intestinal, t1/2” value [10] was 174 min. The “stability in liver microsomes t1/2, mouse” value [11] was 1.98 min, the Ki [12] was 2.7 nM and the “% unbound in plasma, rat” value [13] was 6.32%.

In the case of CNC(=O)[C@@]12C[C@@H]1[C@@H](n1cnc3c(NC)nc(C#Cc4ccco4)nc31)[C@H](O)[C@@H]2O [Compound 27, (1S,2R,3S,4R,5S)-4-(2-(Furan-2-ylethynyl)-6-(methylamino)-9H-purin-9-yl)-2,3-dihydroxy-N-methylbicyclo[3.1.0]hexane-1-carboxamide], the “off-target interactions in PDSP screen” value [1] is reported as “relatively free of off-target receptor effects; also recorded: completely lacks off-target interactions at 10 μM”, the “in vivo duration of action” value [4] is reported as ~3 h and the “apical to basal permeability” value [3] is reported as “moderate”. The P-glycoprotein substrate [3] was “not to be substrates for P-glycoprotein”.

For CNC(=O)[C@@]12C[C@@H]1[C@@H](n1cnc3c(NC)nc(C#Cc4cnn(C)c4)nc31)[C@H](O)[C@@H]2O [Compound 26, (1S,2R,3S,4R,5S)-2,3-Dihydroxy-N-methyl-4-(2-((1-methyl-1H-pyrazol-4-yl)ethynyl)-6-(methylamino)-9H-purin-9-yl)bicyclo[3.1.0]hexane-1-carboxamide], the “off-target interactions in PDSP screen” value [1] was “relatively free of off-target receptor effects”.
